Test results as given in ChEMBL document CHEMBL5678818, “Discovery of potent SOS1 inhibitors that block RAS activation via disruption of the RAS-SOS1 interaction” (Proc Natl Acad Sci U S A, 2019).

Columns and labels:
[1] = molecular target: T1, Serine/threonine-protein kinase Nek10 (Homo sapiens) (UniProt Q6ZWH5); assay: Inhibition of NEK10 (unknown origin) assessed as residual activity at 100 nM by KINOMEscan analysis relative to control
T1 sequence (whole entry): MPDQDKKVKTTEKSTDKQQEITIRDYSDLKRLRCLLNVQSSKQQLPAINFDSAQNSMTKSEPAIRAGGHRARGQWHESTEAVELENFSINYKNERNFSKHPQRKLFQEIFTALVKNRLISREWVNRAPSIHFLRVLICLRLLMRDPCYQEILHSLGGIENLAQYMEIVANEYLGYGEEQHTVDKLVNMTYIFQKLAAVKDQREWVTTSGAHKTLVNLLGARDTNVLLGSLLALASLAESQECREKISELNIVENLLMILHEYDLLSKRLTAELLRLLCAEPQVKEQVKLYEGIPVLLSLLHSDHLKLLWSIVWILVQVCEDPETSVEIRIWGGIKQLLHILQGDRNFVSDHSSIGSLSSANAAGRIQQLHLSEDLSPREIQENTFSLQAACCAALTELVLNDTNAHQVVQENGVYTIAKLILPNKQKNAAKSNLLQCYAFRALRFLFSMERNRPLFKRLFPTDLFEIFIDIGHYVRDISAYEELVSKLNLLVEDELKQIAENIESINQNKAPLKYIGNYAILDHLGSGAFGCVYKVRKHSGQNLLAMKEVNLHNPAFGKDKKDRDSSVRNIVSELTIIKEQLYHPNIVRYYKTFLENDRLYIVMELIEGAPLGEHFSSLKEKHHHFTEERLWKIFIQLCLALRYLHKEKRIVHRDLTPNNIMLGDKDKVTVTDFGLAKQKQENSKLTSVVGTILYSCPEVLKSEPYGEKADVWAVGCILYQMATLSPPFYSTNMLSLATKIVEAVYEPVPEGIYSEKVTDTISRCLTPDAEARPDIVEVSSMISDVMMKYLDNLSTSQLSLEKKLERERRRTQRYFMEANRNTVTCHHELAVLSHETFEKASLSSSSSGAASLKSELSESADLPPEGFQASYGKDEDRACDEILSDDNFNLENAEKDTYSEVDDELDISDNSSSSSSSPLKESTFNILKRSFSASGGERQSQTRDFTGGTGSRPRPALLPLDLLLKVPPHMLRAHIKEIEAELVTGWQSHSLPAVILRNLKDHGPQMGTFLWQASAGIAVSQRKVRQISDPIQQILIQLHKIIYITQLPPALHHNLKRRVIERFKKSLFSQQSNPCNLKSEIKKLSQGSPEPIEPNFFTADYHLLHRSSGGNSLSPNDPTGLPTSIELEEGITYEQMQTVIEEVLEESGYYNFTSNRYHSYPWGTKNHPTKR

[2] = molecular target: Transient receptor potential cation channel subfamily M member 6 (Homo sapiens) (UniProt Q9BX84); assay: Inhibition of TRPM6 (unknown origin) assessed as residual activity at 100 nM by KINOMEscan analysis relative to control
Chain of Transient receptor potential cation channel subfamily M member 6 (Homo sapiens) (Q9BX84 whole entry): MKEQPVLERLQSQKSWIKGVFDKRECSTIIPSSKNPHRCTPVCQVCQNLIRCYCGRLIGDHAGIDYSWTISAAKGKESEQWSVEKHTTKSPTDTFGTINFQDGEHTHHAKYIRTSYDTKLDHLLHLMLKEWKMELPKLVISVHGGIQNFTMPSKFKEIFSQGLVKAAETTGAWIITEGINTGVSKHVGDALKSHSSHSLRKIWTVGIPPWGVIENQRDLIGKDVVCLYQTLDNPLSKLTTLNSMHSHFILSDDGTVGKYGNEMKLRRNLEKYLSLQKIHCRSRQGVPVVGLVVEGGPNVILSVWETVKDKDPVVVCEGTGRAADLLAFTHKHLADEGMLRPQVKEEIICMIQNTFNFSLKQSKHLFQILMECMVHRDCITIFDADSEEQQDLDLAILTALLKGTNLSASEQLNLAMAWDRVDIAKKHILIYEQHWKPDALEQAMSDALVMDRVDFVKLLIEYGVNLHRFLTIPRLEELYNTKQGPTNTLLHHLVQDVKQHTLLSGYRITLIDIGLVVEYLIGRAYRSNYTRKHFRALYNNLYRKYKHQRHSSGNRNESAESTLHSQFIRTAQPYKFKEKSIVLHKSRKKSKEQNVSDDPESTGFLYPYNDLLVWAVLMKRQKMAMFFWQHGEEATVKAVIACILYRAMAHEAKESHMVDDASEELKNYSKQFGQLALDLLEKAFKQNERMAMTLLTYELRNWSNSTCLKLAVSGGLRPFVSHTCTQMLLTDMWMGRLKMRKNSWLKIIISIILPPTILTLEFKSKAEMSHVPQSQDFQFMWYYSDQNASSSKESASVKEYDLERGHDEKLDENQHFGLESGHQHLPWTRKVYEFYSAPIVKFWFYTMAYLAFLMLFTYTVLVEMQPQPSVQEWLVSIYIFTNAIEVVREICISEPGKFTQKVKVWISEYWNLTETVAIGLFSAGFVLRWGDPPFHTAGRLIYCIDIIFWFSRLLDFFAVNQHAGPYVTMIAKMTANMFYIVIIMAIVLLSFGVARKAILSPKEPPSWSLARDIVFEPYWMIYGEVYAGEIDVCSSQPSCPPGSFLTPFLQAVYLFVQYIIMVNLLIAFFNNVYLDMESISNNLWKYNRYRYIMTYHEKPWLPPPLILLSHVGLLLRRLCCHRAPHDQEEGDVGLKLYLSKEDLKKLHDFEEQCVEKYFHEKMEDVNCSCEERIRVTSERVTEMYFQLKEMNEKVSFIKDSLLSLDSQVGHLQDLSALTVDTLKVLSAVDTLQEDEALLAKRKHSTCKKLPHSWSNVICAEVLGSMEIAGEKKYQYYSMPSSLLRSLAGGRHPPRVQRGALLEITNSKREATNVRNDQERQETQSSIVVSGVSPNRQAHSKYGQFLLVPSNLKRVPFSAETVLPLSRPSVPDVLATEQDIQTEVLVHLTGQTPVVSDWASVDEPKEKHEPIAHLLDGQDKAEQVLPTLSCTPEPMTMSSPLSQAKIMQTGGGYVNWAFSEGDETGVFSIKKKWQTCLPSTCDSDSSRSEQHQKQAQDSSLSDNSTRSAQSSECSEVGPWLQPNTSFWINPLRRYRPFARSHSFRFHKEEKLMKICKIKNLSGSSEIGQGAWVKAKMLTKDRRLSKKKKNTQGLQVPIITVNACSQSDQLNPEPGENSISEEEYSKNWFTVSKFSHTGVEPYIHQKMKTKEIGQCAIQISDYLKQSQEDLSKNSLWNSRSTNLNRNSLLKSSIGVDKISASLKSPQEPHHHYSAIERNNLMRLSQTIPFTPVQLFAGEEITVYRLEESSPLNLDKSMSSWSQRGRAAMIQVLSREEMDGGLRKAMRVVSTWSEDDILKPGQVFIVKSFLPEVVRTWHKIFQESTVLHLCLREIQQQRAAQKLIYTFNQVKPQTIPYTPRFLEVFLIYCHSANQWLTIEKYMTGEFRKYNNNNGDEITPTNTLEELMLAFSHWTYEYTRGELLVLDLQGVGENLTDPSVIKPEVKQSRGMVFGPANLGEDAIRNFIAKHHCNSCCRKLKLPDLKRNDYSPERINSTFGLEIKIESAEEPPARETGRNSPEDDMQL

[3] = molecular target: BMP-2-inducible protein kinase (Homo sapiens) (UniProt Q9NSY1); assay: Inhibition of BIKE (unknown origin) assessed as residual activity at 100 nM by KINOMEscan analysis relative to control
Chain of BMP-2-inducible protein kinase (Homo sapiens) (Q9NSY1 whole entry, looked up): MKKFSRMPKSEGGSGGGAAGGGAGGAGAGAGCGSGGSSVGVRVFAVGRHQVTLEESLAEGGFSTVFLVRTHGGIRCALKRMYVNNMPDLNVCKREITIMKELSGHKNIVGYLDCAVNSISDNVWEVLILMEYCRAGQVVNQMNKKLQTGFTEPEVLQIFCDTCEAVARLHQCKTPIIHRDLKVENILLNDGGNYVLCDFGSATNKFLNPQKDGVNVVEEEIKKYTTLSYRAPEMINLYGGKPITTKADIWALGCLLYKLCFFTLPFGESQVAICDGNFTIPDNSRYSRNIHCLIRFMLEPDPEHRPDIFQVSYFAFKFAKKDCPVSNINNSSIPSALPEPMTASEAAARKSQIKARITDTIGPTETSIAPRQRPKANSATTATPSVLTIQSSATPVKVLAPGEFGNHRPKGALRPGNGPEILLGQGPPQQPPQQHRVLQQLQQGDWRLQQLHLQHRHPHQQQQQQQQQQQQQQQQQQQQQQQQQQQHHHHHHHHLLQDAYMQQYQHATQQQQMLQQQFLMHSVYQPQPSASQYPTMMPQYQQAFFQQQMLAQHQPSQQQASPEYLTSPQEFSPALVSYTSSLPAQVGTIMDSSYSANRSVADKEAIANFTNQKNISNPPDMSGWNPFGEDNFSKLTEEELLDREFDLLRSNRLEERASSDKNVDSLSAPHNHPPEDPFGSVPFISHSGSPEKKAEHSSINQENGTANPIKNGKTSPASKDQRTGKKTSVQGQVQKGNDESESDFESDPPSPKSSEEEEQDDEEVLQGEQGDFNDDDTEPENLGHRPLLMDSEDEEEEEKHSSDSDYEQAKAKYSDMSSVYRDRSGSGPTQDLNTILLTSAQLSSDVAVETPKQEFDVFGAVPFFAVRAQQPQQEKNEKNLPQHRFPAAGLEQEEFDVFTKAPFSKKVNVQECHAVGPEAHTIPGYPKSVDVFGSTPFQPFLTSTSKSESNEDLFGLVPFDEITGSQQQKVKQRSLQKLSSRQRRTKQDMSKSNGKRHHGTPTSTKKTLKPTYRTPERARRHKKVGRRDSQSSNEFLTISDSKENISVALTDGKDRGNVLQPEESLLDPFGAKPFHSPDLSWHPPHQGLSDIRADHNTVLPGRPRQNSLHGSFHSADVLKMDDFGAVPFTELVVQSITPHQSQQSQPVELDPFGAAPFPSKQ

[4] = molecular target: T2, Muscle, skeletal receptor tyrosine-protein kinase (Homo sapiens) (UniProt O15146); assay: Inhibition of MUSK (unknown origin) assessed as residual activity at 100 nM by KINOMEscan analysis relative to control
T2 sequence (whole entry): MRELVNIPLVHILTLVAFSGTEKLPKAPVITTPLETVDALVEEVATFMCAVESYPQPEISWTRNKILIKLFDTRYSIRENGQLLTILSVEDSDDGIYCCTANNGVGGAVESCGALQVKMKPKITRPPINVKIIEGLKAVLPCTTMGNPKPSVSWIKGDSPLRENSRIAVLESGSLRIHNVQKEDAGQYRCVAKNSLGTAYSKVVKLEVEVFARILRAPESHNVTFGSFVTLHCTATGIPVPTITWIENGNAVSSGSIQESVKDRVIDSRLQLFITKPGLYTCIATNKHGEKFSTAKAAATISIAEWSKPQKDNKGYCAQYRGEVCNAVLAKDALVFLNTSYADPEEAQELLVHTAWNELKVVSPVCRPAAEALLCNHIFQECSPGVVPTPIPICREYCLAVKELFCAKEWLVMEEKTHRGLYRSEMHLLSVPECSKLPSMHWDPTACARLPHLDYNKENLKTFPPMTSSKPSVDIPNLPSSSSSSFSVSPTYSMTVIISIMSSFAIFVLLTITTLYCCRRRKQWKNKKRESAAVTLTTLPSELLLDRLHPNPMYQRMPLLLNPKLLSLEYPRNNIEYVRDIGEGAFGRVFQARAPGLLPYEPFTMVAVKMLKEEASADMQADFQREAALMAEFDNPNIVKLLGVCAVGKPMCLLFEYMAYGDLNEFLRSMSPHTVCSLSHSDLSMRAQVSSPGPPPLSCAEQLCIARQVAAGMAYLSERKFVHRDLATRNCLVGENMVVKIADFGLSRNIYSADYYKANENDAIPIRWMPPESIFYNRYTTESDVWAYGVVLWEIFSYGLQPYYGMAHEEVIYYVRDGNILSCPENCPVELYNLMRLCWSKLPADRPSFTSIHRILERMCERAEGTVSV

[5] = molecular target: Death-associated protein kinase 2 (Homo sapiens) (UniProt Q9UIK4); assay: Inhibition of DAPK2 (unknown origin) assessed as residual activity at 100 nM by KINOMEscan analysis relative to control
Chain of Death-associated protein kinase 2 (Homo sapiens) (Q9UIK4 whole entry, looked up): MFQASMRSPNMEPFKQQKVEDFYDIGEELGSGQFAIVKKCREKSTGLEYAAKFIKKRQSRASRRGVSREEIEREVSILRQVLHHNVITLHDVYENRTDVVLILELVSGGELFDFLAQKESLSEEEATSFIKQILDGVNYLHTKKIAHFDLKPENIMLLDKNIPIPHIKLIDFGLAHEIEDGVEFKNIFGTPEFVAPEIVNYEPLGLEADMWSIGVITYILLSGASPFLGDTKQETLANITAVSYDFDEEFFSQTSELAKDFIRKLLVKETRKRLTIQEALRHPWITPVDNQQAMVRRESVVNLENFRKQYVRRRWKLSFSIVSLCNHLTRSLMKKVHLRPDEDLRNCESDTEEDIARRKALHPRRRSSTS

COc1cc2ncnc(N[C@H](C)c3cccc4ccccc34)c2cc1OC
Activity [1]: 75% | Activity [2]: 84% | Activity [3]: 93% | Activity [4]: 98% | Activity [5]: 100%
